Tests used:
E. coli = assay: Zones of Inhibition against common chicken bacteria; format: cell-based; conditions: Escherichia coli
Bordetella = assay: as above; format: cell-based
[1] = system: E. coli and Salmonella growth; assay: Preservation of hamburger meat samples against bacterial growth; format: cell-based; conditions: for time bacterial overgrowth prevented: 10 kg hamburger meat
Description: A range of concentrations of liquid allicin (0 ppm to 500 ppm) was applied to 10 kg samples of hamburger meat to determine how long bacterial growth could be prevented. These tests were compared to the normal use of existing preservatives (including nitrates and phosphates).
To test for bacterial growth, small samples of meat were cut from the test piece of meat and, using standard methods of analysis, were checked for E. coli and Salmonella growth.

[2] = system: Brevibacillus laterosporus; assay: Inhibition of bacterial growth in broth by Allicin (Study 2); format: cell-based; design: key: +: Growth present; +^a: weak growth seen, occurred later than lower concentrations; conditions: 34° C.
Description: (§1) Allicin liquid (nominal concentration=1000 ppm. ai) was obtained from Allicin International Ltd and kept refrigerated.
(§2) The bacteria tested were Paenibacillus larvae subsp. larvae, Melissococcus plutonium, Brevibacillus laterosporus and Paenibacillus alvei. All isolates were freshly isolated from diseased material sent to the NBU diagnostic laboratory.
(§3) P. larvae subsp. larvae, B. laterosporus and P. alvei were grown on brain heart infusion plus thiamine (BHIT) agar and broth (SOP NBU/014) under aerobic conditions and M. plutonius was grown on SYPG agar and broth (SOP NBU/015) under anaerobic conditions. All experiments were carried out at 34° C. The concentrations of Allicin liquid investigated were 500, 250, 100, 50, 25 and 10 ppm. Broth was made up at twice the usual concentration, so that when the Allicin-containing component was added, the medium was at the correct strength for bacterial growth. Allicin solution was diluted in sterile deionised water to give the desired concentration when added to autoclaved broth. […] Further controls were included, which were the media plus an appropriate volume of Allicin, but not inoculated with bacteria. This would indicate if there were any bacteria present in the test item that may influence the results seen. Both aerobic and anaerobic controls were included.
(§4) Bacteria were isolated from diseased samples and subcultured on agar plates until pure, when they were inoculated into broth cultures. Cultures of M. plutonius were isolated anaerobically, then plated out and incubated both aerobically and anaerobically, to confirm that the isolate investigated was this bacterium. A similar microbe, Enterococcus faecalis, can sometimes be isolated from EFB-infected samples and is morphologically difficult to distinguish from M. plutonius. However, the former bacterium grows very well aerobically, whereas M. plutonius is unable to replicate. Thus, if an isolate is able to grow aerobically, it is not M. plutonius. This control mechanism was used throughout the experimental procedures to ensure that the correct organism was tested.
(§5) Each bacterium was freshly grown in a test tube containing 5 ml broth. A loopful (5 μl) of this bacterial suspension was removed from the culture and inoculated into each test tube according to SOP NBU/131. The same inoculum source for each strain was used for all Allicin dilutions, and all experiments were done in triplicate.
(§6) Where growth occurred in the presence of Allicin, one replicate from each concentration for each bacterium was plated out on the appropriate agar to identify the bacteria that had grown in the broth, to confirm the results (SOP NBU/131). Once growth was evident on this confirmation plate, the culture was assessed with respect to the colony morphology and Gram stained (according to SOP NBU/111) as a further confirmatory test. This is a suitable method as each bacterium tested has distinctive morphology both macro- and microscopically.

Melissococcus plutonius = assay: as above; format: cell-based; design: key: +: Growth present; +^a: weak growth seen, occurred later than lower concentrations; conditions: 34° C.
Description: as §1, §2, §3, §4, §5, §6

Paenibacillus alvei = assay: as above; format: cell-based; design: key: +: Growth present; +^a: weak growth seen, occurred later than lower concentrations; conditions: 34° C.
Description: as §1, §2, §3, §4, §5, §6

[3] = system: Paenibacillus larvae subsp. larvae; assay: as above; format: cell-based; design: key: +: Growth present; +^a: weak growth seen, occurred later than lower concentrations; conditions: 34° C.
Description: as §1, §2, §3, §4, §5, §6

[4] = system: E. coli, Listeria, E. faecalis and other bacteria associated with animal diseases; conditions: laboratory tests of earlier application WO03/024437; cited from earlier work

C=CCS[S+]([O-])CC=C (centres unmarked) [allicin, Allicin]
zone of inhibition at 166 ppm (E. coli; 166 ppm (1:6 dilution)): 0 mm
zone of inhibition at 1000 ppm (E. coli; 1000 ppm): 17 mm
zone of inhibition at 166 ppm (Bordetella; 166 ppm (1:6 dilution)): 18 mm
zone of inhibition at 1000 ppm (Bordetella; 1000 ppm): 36 mm
time bacterial overgrowth prevented ([1]; 250 ppm): up to 7 days
time bacterial overgrowth prevented ([1]; 375 ppm): up to 10 days
time bacterial overgrowth prevented ([1]; 500 ppm): up to 14 days
allicin concentration demonstrating prevention of growth of E. coli and Salmonella ([1]; meat, equivalent to 0.0250% w/v): 250 ppm
Growth present at test item concentration ([2]; 10 ppm): +
Growth present at test item concentration ([2]; 25 ppm): +
Growth present at test item concentration ([2]; 50 ppm): +
Growth present at test item concentration ([2]; 100 ppm): +^a
Growth present at test item concentration (Melissococcus plutonius; 10 ppm): +
Growth present at test item concentration (Melissococcus plutonius; 25 ppm): +
Growth present at test item concentration (Melissococcus plutonius; 50 ppm): +
Growth present at test item concentration (Melissococcus plutonius; 100 ppm): +^a
Growth present at test item concentration (Paenibacillus alvei; 10 ppm): +
Growth present at test item concentration (Paenibacillus alvei; 25 ppm): +
Growth present at test item concentration (Paenibacillus alvei; 50 ppm): +
Growth present at test item concentration (Paenibacillus alvei; 100 ppm): +^a
Growth present at test item concentration ([3]; 10 ppm): +
Growth present at test item concentration ([3]; 25 ppm): +^a
concentration at which allicin can kill the bacteria [4]: up to 500 ppm

From US20090275667A1, “USE OF ALLICIN AS PRESERVATIVE, AS DISINFECTANT, AS ANTIMICROBIAL OR AS BIOCIDAL AGENT” (Stone Island Holdings Ltd, priority 2003, published 2009)
